Results published in US7550257B2, “Process for identifying substances which modulate the activity of hyperpolarization-activated cation channels” (Sanofi-Aventis Deutschland GmbH, priority 2000, dated 2009).

What was measured:
muHCN2 [1] = molecular target: T1, muHCN2 (Mus musculus, UniProt O88703); assay: Patch-clamp (electrophysiological) examination in the same cells; format: cell-based, murine; conditions: determined electrophysiologically in the same cells
T1 construct: expressed in transfected cells
T1 sequence (O88703 1-863): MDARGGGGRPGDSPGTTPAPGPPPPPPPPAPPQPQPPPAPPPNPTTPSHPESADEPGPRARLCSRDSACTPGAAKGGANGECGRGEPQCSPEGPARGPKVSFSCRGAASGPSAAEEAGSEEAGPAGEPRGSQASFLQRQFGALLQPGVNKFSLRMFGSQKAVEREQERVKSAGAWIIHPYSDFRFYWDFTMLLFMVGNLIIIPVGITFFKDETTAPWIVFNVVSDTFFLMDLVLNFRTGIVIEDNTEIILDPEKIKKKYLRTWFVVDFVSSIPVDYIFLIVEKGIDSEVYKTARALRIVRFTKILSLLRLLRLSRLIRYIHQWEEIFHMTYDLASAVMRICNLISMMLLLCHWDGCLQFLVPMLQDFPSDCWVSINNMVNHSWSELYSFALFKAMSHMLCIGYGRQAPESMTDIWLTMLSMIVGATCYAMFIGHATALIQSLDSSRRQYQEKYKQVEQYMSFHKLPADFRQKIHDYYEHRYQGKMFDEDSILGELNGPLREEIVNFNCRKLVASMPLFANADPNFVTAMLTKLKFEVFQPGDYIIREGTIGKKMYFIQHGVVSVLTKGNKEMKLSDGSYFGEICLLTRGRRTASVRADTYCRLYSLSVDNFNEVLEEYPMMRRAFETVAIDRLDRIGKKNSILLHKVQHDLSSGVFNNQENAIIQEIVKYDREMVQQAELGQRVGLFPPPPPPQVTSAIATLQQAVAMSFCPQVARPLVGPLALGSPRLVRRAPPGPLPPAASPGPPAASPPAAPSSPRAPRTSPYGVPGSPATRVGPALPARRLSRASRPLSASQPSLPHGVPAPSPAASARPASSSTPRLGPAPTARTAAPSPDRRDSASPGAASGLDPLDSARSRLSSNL
Excerpt: Using the patch-clamp method, the cells with detectable mRNA expression were examined electrophysiologically, in the whole-cell configuration, for functional expression of muHCN2. This method is described in detail in Hamill et al (1981), which is incorporated herein by reference. The cells were clamped to a holding potential of −40 mV. Starting with this holding potential, the ion channels were activated by a voltage change to […] for a period of one second. The current amplitude was determined the end of this pulse. Among the transfected HEK cells, some were found having currents of about 1 nA; however, owing to interfering endogenous currents, it was not possible to construct an assay for these cells in the FLIPR.
Electrophysiologically, currents of up to 11 nA were measured. These cells were used for constructing an FLIPR assay for HCN2.
Using the transfected HCN cells, the effect of various concentrations of the substance zatebradine, which is known as an If blocker, were examined. The inhibition by zatebradine was calculated from the relative change in fluorescence from the time 60 seconds. For each concentration of the inhibitor, the mean of in each case 6 wells of the microtiter plate was determined.

muHCN2 [2] = molecular target: T1, muHCN2; assay: FLIPR membrane potential assay (DiBac4(3)) with transfected HCN cells; format: cell-based, murine; conditions: muHCN2-transfected CHO cells, relative change in fluorescence from the time 60 seconds, mean of 6 wells per concentration, read-out: IC50 of zatebradine (inhibition calculated from relative change in fluorescence)
Method: The cells seeded on the microtiter plates are washed in an isoosmolar buffer in which NaCl has been replaced by choline chloride. However, this wash buffer also contains 5 mM KCl, since extracellular K^+ is important for HCN activation (Biel et al. 1999). This wash buffer, which serves to effect hyperpolarization of the HCN cells, also contains 5 μM DiBac4(3) for measuring changes in the membrane potential in the FLIPR. By removing the extracellular Na^+, the cells are hyperpolarized, i.e. the HCN is activated. However, the HCN is not capable of causing depolarization of the cells, since the required concentration gradient of the ions Na^+ or K^+ transported by HCN is missing. […] This is reflected in the fact that the initial fluorescence measured for HCN cells in the FLIPR at 10 μM forskolin is lower than that without forskolin, whereas there is no difference in nontransfected cells.
Since DiBac4(3) fluorescence may be sensitive to temperature variations, the measurement is, after an incubation at 37° C. for 30 minutes, carried out as quickly as possible—cooling of the dye solution may affect the measured results. […]
In the FLIPR, Na^+ is added to the cells so that the activated HCN (after a few seconds, in which there are mixing effects) causes, from about 15 seconds after the addition of Na^+, depolarization of the cells, which becomes visible by an increase in fluorescence. […]

- IC50 (muHCN2 [1]): 31 µM
- IC50 (muHCN2 [2]): 26 µM
SMILES: COc1ccc(CCN(C)CCCN2CCc3cc(OC)c(OC)cc3CC2=O)cc1OC [zatebradine, 3-[3-[[2-(3,4-dimethoxyphenyl)ethyl]methylamino]propyl]-1,3,4,5-tetrahydro-7,8-dimethoxy-2H-3-benzazepin-2-one]
